According to US11952584B2, “Functional peptides having antimicrobial activity against phytopathogenic microorganisms” (TOYOTA JIDOSHA KABUSHIKI KAISHA, priority 2019, dated 2024):
Several values for one entry are separate records, joined by “and”; a condition that tells them apart may be missing. Equal entries are not always repeated. Where two headings read alike, the source gives them in different places.

Tests used:
[1] = system: plant pathogenic filamentous fungi; type: cell-based; conditions: summary of Table 3
Botrytis cinerea = type: cell-based; conditions: 25° C., 1 day or 2 days
[2] = system: Colletotrichum destructivum; experiment: Colletotrichum destructivum leaf inoculation test (Chinese cabbage leaf); type: in vivo; conditions: 25° C., 4 days, lesions by visual inspection
Excerpt: In the present example, a suspension comprising Colletotrichum destructivum and a peptide to be tested was dropped on a plant leaf, and lesions were then observed by visual inspection to evaluate the antimicrobial activity of the tested peptide. First, the pores of Colletotrichum destructivum were suspended in water to result in a spore concentration of 5×10^5 spores/ml, so as to prepare a water suspension of spores. Subsequently, peptides to be tested (TsORF18 (full length), TsORF18-40 a.a., and TsORF18-2) were each added to the water suspension of spores, so that the final concentration of the peptides to be tested became 0 μM, 1 μM, 10 μM or 100 μM. Thereafter, 10 μl each of the water suspension of spores containing the peptide to be tested was dropped on the front side and the back side of the leaf of Chinese cabbage (variety name: “Kigokoro 85”). In this condition, incubation was carried out at 25° C. for 4 days. Thereafter, the front and back sides of the leaf were observed by visual inspection.

Fusarium oxysporum = type: cell-based
[3] = system: Colletotrichum orbiculare; type: cell-based; conditions: 25° C., 1 day or 2 days
[4] = system: Colletotrichum destructivum; type: cell-based; conditions: 25° C., 1 day or 2 days
Pyricularia oryzae = type: cell-based; conditions: 25° C., 1 day or 2 days

Substance | germination inhibitory activity against plant pathogenic filamentous fungi (in words) [1] | Plate antimicrobial activity test Botrytis cinerea (level) (Botrytis cinerea; peptide 1 μM) | Plate antimicrobial activity test Botrytis cinerea (level) (Botrytis cinerea; peptide 10 μM) | Plate antimicrobial activity test Botrytis cinerea (level) (Botrytis cinerea; peptide 100 μM) | Leaf inoculation test Chinese cabbage/Colletotrichum destructivum ([2]; peptide 10 μM) | Leaf inoculation test Chinese cabbage/Colletotrichum destructivum ([2]; peptide 100 μM) | Plate antimicrobial activity test Fusarium oxysporum (level) (Fusarium oxysporum) | Plate antimicrobial activity test Collectotrichum orbiculare (level) ([3]; peptide 1 μM) | Plate antimicrobial activity test Collectotrichum orbiculare (level) ([3]; peptide 10 μM) | Plate antimicrobial activity test Collectotrichum orbiculare (level) ([3]; peptide 100 μM) | Plate antimicrobial activity test Colletotrichum destructivum (level) ([4]; peptide 1 μM) | Plate antimicrobial activity test Colletotrichum destructivum (level) ([4]; peptide 10 μM) | Plate antimicrobial activity test Colletotrichum destructivum (level) ([4]; peptide 100 μM) | Plate antimicrobial activity test Pyricularia oryzae (level) (Pyricularia oryzae; peptide 1 μM) | Plate antimicrobial activity test Pyricularia oryzae (level) (Pyricularia oryzae; peptide 10 μM) | Plate antimicrobial activity test Pyricularia oryzae (level) (Pyricularia oryzae; peptide 100 μM) | Leaf inoculation test Chinese cabbage/Colletotrichum destructivum ([2]; peptide 1 μM)
RKFWR (listed as Solanum lycopersicum) [TsORF18-2-5aa-12] | extremely excellent germination inhibitory activity | 0 | 0 | 3 | ∘ | ∘ | 3 and 0 | 0 | 0 | 2 | 0 | 0 | 3 | 0 | 0 | 0 | 
RTRKFWRI (listed as Solanum lycopersicum) [TsORF18-2-8aa-10] | extremely excellent germination inhibitory activity | 0 | 0 | 3 | ∘ | ∘ | 3 and 1 and 0 | 0 | 0 | 3 | 0 | 0 | 3 | 0 | 0 | 1 | 
WRIWK (listed as Solanum lycopersicum) [TsORF18-2-5aa-15] | extremely excellent germination inhibitory activity | 0 | 0 | 3 |  |  | 2 and 0 | 0 | 0 | 2 | 0 | 0 | 3 | 0 | 0 | 0 | 
WRIWKGKT (listed as Solanum lycopersicum) [TsORF18-2-8aa-15] | extremely excellent germination inhibitory activity | 0 | 0 | 3 |  |  | 3 and 0 | 0 | 0 | 3 | 0 | 0 | 3 | 0 | 0 | 0 | 
KFWRI (listed as Solanum lycopersicum) [TsORF18-2-5aa-13] | extremely excellent germination inhibitory activity | 0 | 0 | 3 | ∘ | ∘ | 3 and 0 | 0 | 0 | 3 | 0 | 0 | 3 | 0 | 0 | 1 | 
ERTRKFWR (listed as Solanum lycopersicum) [TsORF18-2-8aa-9] | extremely excellent germination inhibitory activity | 0 | 0 | 3 |  |  | 3 and 0 | 0 | 0 | 1 | 0 | 0 | 0 | 0 | 0 | 1 | 
FWRIWKGK (listed as Solanum lycopersicum) [TsORF18-2-8aa-14] | extremely excellent germination inhibitory activity | 0 | 0 | 3 | ∘ | ∘ | 3 and 0 | 0 | 0 | 3 | 0 | 0 | 3 | 0 | 0 | 0 | Δ
